In US10160747B2, “Compounds and methods for kinase modulation, and indications therefor” (Plexxikon Inc., priority 2016, dated 2018):
Residue numbers refer to the chain shown, from its start.

Experiments:
[1] = tested on: leukemia cell that express either wild type FLT3 or FLT3-ITD mutations; settings: cells expressing wild type FLT3 or FLT3-ITD mutations; cited from earlier work
BA/F3-FLT3-ITD + D835Y = target: T1, BA/F3-FLT3-ITD + D835Y (Homo sapiens, UniProt P36888, D835Y, cells depend on it, form not given); assay: Engineered BA/F3 cell growth assay, FLT3 ITD/D835Y; type: cell-based, murine; settings: three day growth assay in the absence of IL3; read-out: BaF3_FLT3_ITD/D835Y
T1 sequence (P36888 with tags, fused parts or gaps INS600HVDFREYEYD/D835Y): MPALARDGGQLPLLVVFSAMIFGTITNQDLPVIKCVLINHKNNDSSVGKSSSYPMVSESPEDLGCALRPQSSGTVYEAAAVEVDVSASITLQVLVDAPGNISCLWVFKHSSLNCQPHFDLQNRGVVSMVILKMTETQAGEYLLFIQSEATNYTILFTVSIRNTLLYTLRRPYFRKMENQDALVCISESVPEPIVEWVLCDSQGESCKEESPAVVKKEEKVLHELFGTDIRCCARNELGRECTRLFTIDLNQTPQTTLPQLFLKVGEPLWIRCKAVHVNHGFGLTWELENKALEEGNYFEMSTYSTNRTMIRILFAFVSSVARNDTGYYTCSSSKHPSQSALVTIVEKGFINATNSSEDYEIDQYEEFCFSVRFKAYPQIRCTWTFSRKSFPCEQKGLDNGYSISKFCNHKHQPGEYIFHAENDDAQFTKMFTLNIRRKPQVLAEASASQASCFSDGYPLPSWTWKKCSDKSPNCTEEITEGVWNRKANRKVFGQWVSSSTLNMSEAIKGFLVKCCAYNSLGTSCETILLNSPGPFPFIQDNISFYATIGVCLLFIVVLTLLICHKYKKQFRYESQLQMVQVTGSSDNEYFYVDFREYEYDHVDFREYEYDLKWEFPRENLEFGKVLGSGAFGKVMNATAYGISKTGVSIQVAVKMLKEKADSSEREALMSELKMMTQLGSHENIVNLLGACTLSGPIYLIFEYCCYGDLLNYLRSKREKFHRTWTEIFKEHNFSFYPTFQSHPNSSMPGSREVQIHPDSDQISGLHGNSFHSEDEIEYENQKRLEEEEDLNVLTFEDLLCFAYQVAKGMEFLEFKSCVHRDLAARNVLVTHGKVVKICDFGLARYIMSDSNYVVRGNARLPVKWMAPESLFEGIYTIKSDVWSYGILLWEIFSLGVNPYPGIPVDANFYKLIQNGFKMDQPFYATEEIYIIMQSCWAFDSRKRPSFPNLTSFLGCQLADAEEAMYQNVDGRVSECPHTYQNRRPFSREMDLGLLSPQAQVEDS
Outline: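 IC50 derived from CellTiter-Glo ATP luminescence after 3 days at 37 °C, 5% CO2, over eight 1:3 dilutions from 1 μM (0.2% DMSO final). Cells: IL-3-independent murine Ba/F3 expressing full-length FLT3 ITD/D835Y, 1×10^4 per well.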

BaF3_FLT3_ITD/F691L = target: T2, BaF3_FLT3_ITD/F691L (Homo sapiens, UniProt P36888, F691L, cells depend on it, form not given); assay: Engineered BaF3 cell growth assay, FLT3 ITD/F691L; type: cell-based, murine; settings: three day growth assay in the absence of IL3
T2 sequence (P36888 with tags, fused parts or gaps INS600HVDFREYEYD/F691L): T1 sequence (P36888 with tags, fused parts or gaps INS600HVDFREYEYD/D835Y) with F701L, Y845D
Text: The FLT3 inhibitors may be assessed using the MOLM-14, Acute Myeloid Leukemia cell line that endogenously expresses FLT3 ITD or derivatives of the human FLT3 AML cell line which acquired the D835Y (activation loop) of F691L (gatekeeper) mutation after selection in escalating doses of the FLT3 Inhibitor AC220. FLT3 inhibitors may also be assessed using cells that are engineered to express mutant FLT3. For engineered cells, murine Ba/F3 cells were transfected with full-length FLT3 ITD/D835Y mutations. The parental BA/F3 cells are dependent upon Interleukin-3 (IL-3) for survival, and introduction of the FLT3 constructs rendered these cells dependent upon FLT3 kinase activity when cultured in the absences of IL-3. Engineered BA/F3 cell growth assays can be performed in either the […] of IL-3, to assess the compound inhibition of FLT3 or to detect the presence of off-target activity, respectively. Inhibitors of FLT3 kinase activity reduce or eliminate the FLT3 oncogenic signaling, resulting in reduced cell proliferation. This inhibition is measured as a function of compound concentration to assess IC50 values.
Cells were seeded at 1×10^4 cells per well of a 96 well cell culture plate in 50 μl of cell culture medium. Compounds were dissolved in DMSO, typically at a concentration of 0.5 mM and were serially diluted 1:3 for a total of eight points and added to the cells to final concentrations of […], 0.0041, 0.0014 and 0.00046 μM in 100 μl cell culture medium (final concentration 0.2% DMSO). […] The cells were incubated at 37° C., 5% CO2 for three days. CellTiter-Glo Buffer (Promega Cell Viability Assay catalog #G7573) and substrate were equilibrated to room temperature, and enzyme/substrate Recombinant Firefly Luciferase/Beetle Luciferin was reconstituted. […] The plates were read on a Tecan M1000 using Luminescence protocol modified to read 0.1 s per well. The luminescence reading assesses the ATP content, which correlates directly with cell number such that the reading as a function of compound concentration was used to determine the IC50 value. […]

[2] = tested on: quizartinib resistance-causing mutants; settings: FLT3-ITD KD mutants, in addition to other mutant isoforms; cited from earlier work

| SMILES | growth of leukemia cells [1] | GI50 (BA/F3-FLT3-ITD + D835Y) [nM] | GI50 (BaF3_FLT3_ITD/F691L) [nM] | activity against identified quizartinib resistance-causing mutants [2] |
| --- | --- | --- | --- | --- |
| C=CCNC1=C2C[C@@H](C)C[C@H](OC)[C@H](O)[C@@H](C)/C=C(\C)[C@H](OC(N)=O)[C@@H](OC)/C=C\C=C(/C)C(=O)NC(=CC1=O)C2=O [17″AAG, 17AAG] | inhibited |  |  |  |
| Cn1cc(Nc2ncc(-c3ccc(CC(=O)Nc4ccnc(C(F)(F)F)c4)cc3)cn2)cn1 [drawing 325] |  | 0.108 | 0.313 |  |
| Cn1cc(Nc2ncc(-c3ccc(CC(=O)Nc4cccc(C(F)(F)F)c4)cc3)cn2)cn1 [drawing 326] |  | 0.462 | 1.54 |  |
| Cn1cc(Nc2ncc(-c3ccc(CC(=O)Nc4ccc(C(C)(C)C)nc4)cc3)cn2)cn1 [drawing 327] |  | 0.444 | 0.434 |  |
| CNC(=O)c1cc(Oc2ccc(NC(=O)Nc3ccc(Cl)c(C(F)(F)F)c3)cc2)ccn1 [sorafenib] |  |  |  | ineffective |
